Data as given in ChEMBL document CHEMBL1821665, “Structure-based design and optimization of potent renin inhibitors on 5- or 7-azaindole-scaffolds” (Bioorg Med Chem Lett, 2011).

Legend:
[1] = target: T1, Renin (Homo sapiens, UniProt P00797); assay: Inhibition of recombinant human renin using Dabcyl-gamma-Abu-Ile-His-Pro-Phe-His-Leu-Val-Ile-His-Thr-EDANS as substrate after 2 hrs by spectrofluorometry
T1 sequence (P00797 whole entry): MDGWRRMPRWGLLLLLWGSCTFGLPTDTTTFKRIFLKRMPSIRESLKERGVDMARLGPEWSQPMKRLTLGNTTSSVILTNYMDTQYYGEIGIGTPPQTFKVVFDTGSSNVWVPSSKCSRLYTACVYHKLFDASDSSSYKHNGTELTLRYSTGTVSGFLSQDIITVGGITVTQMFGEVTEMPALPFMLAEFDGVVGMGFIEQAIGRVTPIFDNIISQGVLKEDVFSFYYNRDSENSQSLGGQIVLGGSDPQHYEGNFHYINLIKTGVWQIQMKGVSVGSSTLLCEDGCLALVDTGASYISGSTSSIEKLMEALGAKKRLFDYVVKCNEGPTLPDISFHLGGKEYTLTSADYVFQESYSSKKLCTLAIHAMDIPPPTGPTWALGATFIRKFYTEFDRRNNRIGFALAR

[2] = Apparent permeability from apical to basolateral side of human Caco2/TC7 cells at 20 uM after 2 hrs in presence of 0.5 to 5% BSA at pH 6.5 to 7.4; type: ADME, cell-based; conditions: Caco-2, pH 6.5
[3] = target: T1, Renin; assay: Inhibition of recombinant human renin using Dabcyl-gamma-Abu-Ile-His-Pro-Phe-His-Leu-Val-Ile-His-Thr-EDANS as substrate preincubated for 30 mins followed by 30 mins incubation in human plasma by spectrofluorometry
[4] = target: T1, Renin; assay: Inhibition of recombinant human renin using Dabcyl-gamma-Abu-Ile-His-Pro-Phe-His-Leu-Val-Ile-His-Thr-EDANS as substrate preincubated for 30 mins followed by 30 mins incubation in mouse C57BL/6 plasma by spectrofluorometry

SMILES | IC50 [1] [nM] | other results
O=C(c1c(Oc2ccccc2)n(-c2ccccc2)c2ncccc12)N1CCNCC1 | 1830 | –
O=C(c1c(Oc2ccccc2F)n(-c2ccccc2)c2ncccc12)N1CCNCC1 | 5060 | –
Cc1cccc(F)c1Oc1c(C(=O)N2CCNCC2)c2cccnc2n1-c1ccccc1 | 231 | –
Cc1ccc(F)cc1Oc1c(C(=O)N2CCNCC2)c2cccnc2n1-c1ccccc1 | 396 | –
Cc1c(F)cc(F)cc1Oc1c(C(=O)N2CCNCC2)c2cccnc2n1-c1ccccc1 | 504 | –
O=C(c1c(Cc2ccccc2)n(-c2ccccc2)c2ncccc12)N1CCNCC1 | 6410 | –
COc1cnc2c(c1)c(C(=O)N1CCNCC1)c(Cc1cccc(F)c1C)n2-c1ccccc1 | 4670 | –
CCc1ccnc2c1c(C(=O)N1CCNCC1)c(Oc1cc(F)ccc1C)n2-c1ccccc1 | 1230 | –
CCCc1ccnc2c1c(C(=O)N1CCNCC1)c(Oc1c(C)cccc1C)n2-c1ccccc1 | 186 | –
CCCc1ccnc2c1c(C(=O)N1CCNCC1)c(Cc1cccc(F)c1C)n2-c1ccccc1 | 218 | –
Cc1ccccc1Oc1c(C(=O)N2CCNCC2)c2cnccc2n1-c1ccccc1 | 847 | –
Cc1ccc(F)cc1Oc1c(C(=O)N2CCNCC2)c2cnccc2n1-c1ccccc1 | 123 | –
Cc1c(F)cccc1Oc1c(C(=O)N2CCNCC2)c2cnccc2n1-c1ccccc1 | 181 | –
Cc1c(F)cc(F)cc1Oc1c(C(=O)N2CCNCC2)c2cnccc2n1-c1ccccc1 | 650 | –
O=C(c1c(Cc2ccccc2)n(-c2ccccc2)c2ccncc12)N1CCNCC1 | 3400 | –
Cc1ccccc1Cc1c(C(=O)N2CCNCC2)c2cnccc2n1-c1ccccc1 | 520 | –
COc1cc2c(cn1)c(C(=O)N1CCNCC1)c(Cc1cccc(F)c1C)n2C1CCCCC1 | 150 | –
Cc1c(F)cccc1Cc1c(C(=O)N2CCNCC2)c2cnc(O)cc2n1C1CCCCC1 | 116 | –
Cc1c(F)cccc1Cc1c(C(=O)N2CCN[C@@H](C)C2)c2c[nH]c(=O)cc2n1C1CCCCC1 | 154 | –
COC[C@H]1CN(C(=O)c2c(Cc3cccc(F)c3C)n(C3CCCCC3)c3cc(OC)ncc23)CCN1 | 4090 | –
COc1cc2c(cn1)c(C(=O)N1CCN[C@@H](CO)C1)c(Cc1cccc(F)c1C)n2C1CCCCC1 | 3260 | –

The next compounds have a lower IC50 [1] than those just listed; values first:

IC50 [1] [nM] | SMILES | other results
99 | COc1cc2c(cn1)c(C(=O)N1CCNCC1)c(Oc1c(C)cccc1C)n2C1CCCCC1 | –
98 | Cc1ccccc1Oc1c(C(=O)N2CCNCC2)c2cccnc2n1-c1ccccc1 | –
98 | Cc1ccc(F)c(C)c1Oc1c(C(=O)N2CCNCC2)c2cnc(O)cc2n1C1CCCCC1 | –
89 | CCc1ccnc2c1c(C(=O)N1CCNCC1)c(Cc1cccc(F)c1C)n2-c1ccccc1 | –
88 | Cc1c(F)cccc1Cc1c(C(=O)N2CCNCC2)c2cnc(O)cc2n1-c1ccccc1 | –
73 | COc1cc2c(cn1)c(C(=O)N1CCNCC1)c(Oc1cc(F)ccc1C)n2-c1ccccc1 | –
37 | Cc1ccc(F)c(C)c1Oc1c(C(=O)N2CCN[C@@H](C)C2)c2c[nH]c(=O)cc2n1C1CCCCC1 | –
24 | Cc1ccc(F)cc1Oc1c(C(=O)N2CCNCC2)c2cnc(O)cc2n1-c1ccccc1 | –
15 | COc1ccc2c(C(=O)N3CCNCC3)c(Oc3cc(F)ccc3C)n(-c3ccccc3)c2n1 | –
11 | Cc1ccc(F)cc1Oc1c(C(=O)N2CCN[C@@H](C)C2)c2cnc(O)cc2n1C1CCCCC1 | –
8 | Cc1c(F)cccc1Cc1c(C(=O)N2CCNCC2)c2cnccc2n1-c1ccccc1 | Papp A→B at 2 h, 20 µM [2]: 0.64 ×10⁻⁶ cm/s; IC50 [3]: 200 nM; IC50 [4]: 410 nM
6 | Cc1ccc(F)cc1Oc1c(C(=O)N2CCNCC2)c2cc(O)cnc2n1-c1ccccc1 | Papp A→B at 2 h, 20 µM [2]: 0.45 ×10⁻⁶ cm/s; IC50 [3]: 189 nM; IC50 [4]: 57 nM
6 | Cc1c(F)cccc1Cc1c(C(=O)N2CCNCC2)c2cc(O)cnc2n1-c1ccccc1 | IC50 [3]: 95 nM; IC50 [4]: 159 nM
6 | COc1cc2c(cn1)c(C(=O)N1CCNCC1)c(Cc1cccc(F)c1C)n2-c1ccccc1 | Papp A→B at 2 h, 20 µM [2]: 2.2 ×10⁻⁶ cm/s; IC50 [3]: 328 nM
